Assay: Solubility description
Assay type: physicochemical

Solubility (acetone)	Solubility (ethyl acetate and acetonitrile)	Solubility (methanol, ethanol)	Solubility (water and aqueous solutions)	Solubility (water)	SMILES
sparingly soluble	slightly soluble	soluble	poorly soluble		C[C@]12CC[C@@H]3c4ccc(O)cc4CC[C@H]3[C@@H]1[C@@H](O)[C@@H](O)C2O (stereo in doubt) [Estetrol monohydrate, estra-1,3,5(10)-triene-3,15α,16α,17α-tetrol monohydrate]
				slight solubility	C[C@]12CCC(=O)C=C1[C@@H]1C[C@@H]1[C@H]1[C@@H]3[C@@H]4C[C@@H]4[C@@]4(CCC(=O)O4)[C@@]3(C)CC[C@@H]12 [Drospirenone]
